Each molecule was assayed against GST-Bc1-2 (Homo sapiens, UniProt P10415) (assay: Time Resolved-Fluorescence Resonance Energy Transfer (TR-FRET) Bcl-2 binding assay with F-Bak peptide probe). Settings: GST-Bcl-2 1 nM, F-Bak probe 100 nM, Tb-anti-GST 1 nM; '<' = below limit of detection; read-out: TR-FRET Bcl-2 Binding Ki.
Chain of GST-Bc1-2 (P10415 whole entry): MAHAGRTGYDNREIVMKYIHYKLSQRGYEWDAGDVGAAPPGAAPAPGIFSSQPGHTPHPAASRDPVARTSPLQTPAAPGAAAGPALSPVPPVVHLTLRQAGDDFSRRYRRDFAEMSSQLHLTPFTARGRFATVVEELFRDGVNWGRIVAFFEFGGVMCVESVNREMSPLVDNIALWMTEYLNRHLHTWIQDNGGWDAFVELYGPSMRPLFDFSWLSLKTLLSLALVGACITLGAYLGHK

SMILES | Ki [nM]
CC1(C)CCC(CN2CCN(c3ccc(C(=O)NS(=O)(=O)c4ccc(OC[C@@H]5COCCO5)c([N+](=O)[O-])c4)c(Oc4cnc5[nH]ccc5c4)c3)CC2)=C(c2ccc(Cl)cc2)C1 [Example 28, 4-(4-{[2-(4-chlorophenyl)-4,4-dimethylcyclohex-1-en-1-yl]methyl}piperazin-1-yl)-N-({4-[(2S)-1,4-dioxan-2-ylmethoxy]-3-nitrophenyl}sulfonyl)-2-(1H-pyrrolo[2,3-b]pyridin-5-yloxy)benzamide] | < 0.01
CO[C@H]1CC[C@@H](CNc2ccc(S(=O)(=O)NC(=O)c3ccc(N4CCN(CC5=C(c6ccc(Cl)cc6)CC(C)(C)CC5)CC4)cc3Oc3cnc4[nH]ccc4c3)cc2[N+](=O)[O-])CC1 [Example 29, Cis-4-(4-{[2-(4-chlorophenyl)-4,4-dimethylcyclohex-1-en-1-yl]methyl}piperazin-1-yl)-N-[(4-{[(4-methoxycyclohexyl)methyl]amino}-3-nitrophenyl)sulfonyl]-2-(1H-pyrrolo[2,3-b]pyridin-5-yloxy)benzamide] | < 0.01
CC1(C)CCC(CN2CCN(c3ccc(C(=O)NS(=O)(=O)c4ccc(OC[C@H]5COCCO5)c([N+](=O)[O-])c4)c(Oc4cnc5[nH]ccc5c4)c3)CC2)=C(c2ccc(Cl)cc2)C1 [Example 30, 4-(4-{[2-(4-chlorophenyl)-4,4-dimethylcyclohex-1-en-1-yl]methyl}piperazin-1-yl)-N-({4-[(2R)-1,4-dioxan-2-ylmethoxy]-3-nitrophenyl}sulfonyl)-2-(1H-pyrrolo[2,3-b]pyridin-5-yloxy)benzamide] | < 0.01
CC1(C)CC(c2ccc(Cl)cc2)=C(CN2CCN(c3ccc(C(=O)NS(=O)(=O)c4ccc(NCC5COCCO5)c([N+](=O)[O-])c4)c(Oc4cnc5[nH]ccc5c4)c3)CC2)CO1 (stereo not shown) [Example 31, 4-(4-{[4-(4-chlorophenyl)-6,6-dimethyl-5,6-dihydro-2H-pyran-3-yl]methyl}piperazin-1-yl)-N-({4-[(1,4-dioxan-2-ylmethyl)amino]-3-nitrophenyl}sulfonyl)-2-(1H-pyrrolo[2,3-b]pyridin-5-yloxy)benzamide] | < 0.01
CC1(C)CC(c2ccc(Cl)cc2)=C(CN2CCN(c3ccc(C(=O)NS(=O)(=O)c4ccc(OCC5COCCO5)c([N+](=O)[O-])c4)c(Oc4cnc5[nH]ccc5c4)c3)CC2)CO1 (stereo not shown) [Example 32, 4-(4-{[4-(4-chlorophenyl)-6,6-dimethyl-5,6-dihydro-2H-pyran-3-yl]methyl}piperazin-1-yl)-N-{[4-(1,4-dioxan-2-ylmethoxy)-3-nitrophenyl]sulfonyl}-2-(1H-pyrrolo[2,3-b]pyridin-5-yloxy)benzamide] | < 0.01
CC1(C)CC(c2ccc(Cl)cc2)=C(CN2CCN(c3ccc(C(=O)NS(=O)(=O)c4ccc(N[C@H]5CC[C@H](N6CCOCC6)CC5)c([N+](=O)[O-])c4)c(Oc4cnc5[nH]ccc5c4)c3)CC2)CO1 [Example 33, Trans-4-(4-{[4-(4-chlorophenyl)-6,6-dimethyl-5,6-dihydro-2H-pyran-3-yl]methyl}piperazin-1-yl)-N-({4-[(4-morpholin-4-ylcyclohexyl)amino]-3-nitrophenyl}sulfonyl)-2-(1H-pyrrolo[2,3-b]pyridin-5-yloxy)benzamide] | < 0.01
CO[C@H]1CC[C@H](CNc2ccc(S(=O)(=O)NC(=O)c3ccc(N4CCN(CC5=C(c6ccc(Cl)cc6)CC(C)(C)CC5)CC4)cc3Oc3cnc4[nH]ccc4c3)cc2[N+](=O)[O-])CC1 [Example 34, Trans-4-(4-{[2-(4-chlorophenyl)-4,4-dimethylcyclohex-1-en-1-yl]methyl}piperazin-1-yl)-N-[(4-{[(4-methoxycyclohexyl)methyl]amino}-3-nitrophenyl)sulfonyl]-2-(1H-pyrrolo[2,3-b]pyridin-5-yloxy)benzamide] | 0.01
CC1(C)CC(c2ccc(Cl)cc2)=C(CN2CCN(c3ccc(C(=O)NS(=O)(=O)c4cnc(OCC5CCOCC5)c(C#N)c4)c(Oc4cnc5[nH]ccc5c4)c3)CC2)CO1 [Example 35, 4-(4-{[4-(4-chlorophenyl)-6,6-dimethyl-5,6-dihydro-2H-pyran-3-yl]methyl}piperazin-1-yl)-N-{[5-cyano-6-(tetrahydro-2H-pyran-4-ylmethoxy)pyridin-3-yl]sulfonyl}-2-(1H-pyrrolo[2,3-b]pyridin-5-yloxy)benzamide] | < 0.01
CC1(C)CCC(CN2CCN(c3ccc(C(=O)NS(=O)(=O)c4cnc(OCC5CCOCC5)c(C#N)c4)c(Oc4cnc5[nH]ccc5c4)c3)CC2)=C(c2ccc(Cl)cc2)C1 [Example 36, 4-(4-{[2-(4-chlorophenyl)-4,4-dimethylcyclohex-1-en-1-yl]methyl}piperazin-1-yl)-N-{[5-cyano-6-(tetrahydro-2H-pyran-4-ylmethoxy)pyridin-3-yl]sulfonyl}-2-(1H-pyrrolo[2,3-b]pyridin-5-yloxy)benzamide] | 0.017
CC1(C)CCC(CN2CCN(c3ccc(C(=O)NS(=O)(=O)c4ccc(OCC5(F)CCOCC5)c([N+](=O)[O-])c4)c(Oc4cnc5[nH]ccc5c4)c3)CC2)=C(c2ccc(Cl)cc2)C1 [Example 37, 4-(4-{[2-(4-chlorophenyl)-4,4-dimethylcyclohex-1-en-1-yl]methyl}piperazin-1-yl)-N-({4-[(4-fluorotetrahydro-2H-pyran-4-yl)methoxy]-3-nitrophenyl}sulfonyl)-2-(1H-pyrrolo[2,3-b]pyridin-5-yloxy)benzamide] | < 0.01
CC1(C)CCC(CN2CCN(c3ccc(C(=O)NS(=O)(=O)c4ccc(OCC5CCOCC5)c(C(N)=O)c4)c(Oc4cnc5[nH]ccc5c4)c3)CC2)=C(c2ccc(Cl)cc2)C1 [Example 38, N-{[3-(aminocarbonyl)-4-(tetrahydro-2H-pyran-4-ylmethoxy)phenyl]sulfonyl}-4-(4-{[2-(4-chlorophenyl)-4,4-dimethylcyclohex-1-en-1-yl]methyl}piperazin-1-yl)-2-(1H-pyrrolo[2,3-b]pyridin-5-yloxy)benzamide] | 0.3
CC1(C)CCC(CN2CCN(c3ccc(C(=O)NS(=O)(=O)c4ccc(N[C@H]5CC[C@@H](N6CCOCC6)CC5)c([N+](=O)[O-])c4)c(Oc4cnc5[nH]ccc5c4)c3)CC2)=C(c2ccc(Cl)cc2)C1 [Example 39, Cis-4-(4-{[2-(4-chlorophenyl)-4,4-dimethylcyclohex-1-en-1-yl]methyl}piperazin-1-yl)-N-({4-[(4-morpholin-4-ylcyclohexyl)amino]-3-nitrophenyl}sulfonyl)-2-(1H-pyrrolo[2,3-b]pyridin-5-yloxy)benzamide] | 0.012
CC1(C)CCC(CN2CCN(c3ccc(C(=O)NS(=O)(=O)c4cnc(OCC5CCOCC5)c(Cl)c4)c(Oc4cnc5[nH]ccc5c4)c3)CC2)=C(c2ccc(Cl)cc2)C1 [Example 40, 4-(4-{[2-(4-chlorophenyl)-4,4-dimethylcyclohex-1-en-1-yl]methyl}piperazin-1-yl)-N-{[5-chloro-6-(tetrahydro-2H-pyran-4-ylmethoxy)pyridin-3-yl]sulfonyl}-2-(1H-pyrrolo[2,3-b]pyridin-5-yloxy)benzamide] | < 0.01
CC1(C)CC(c2ccc(Cl)cc2)=C(CN2CCN(c3ccc(C(=O)NS(=O)(=O)c4cnc(OCC5CCOCC5)c(Cl)c4)c(Oc4cnc5[nH]ccc5c4)c3)CC2)CO1 [Example 41, 4-(4-{[4-(4-chlorophenyl)-6,6-dimethyl-5,6-dihydro-2H-pyran-3-yl]methyl}piperazin-1-yl)-N-{[5-chloro-6-(tetrahydro-2H-pyran-4-ylmethoxy)pyridin-3-yl]sulfonyl}-2-(1H-pyrrolo[2,3-b]pyridin-5-yloxy)benzamide] | < 0.01
CC1(C)CC(c2ccc(Cl)cc2)=C(CN2CCN(c3ccc(C(=O)NS(=O)(=O)c4ccc(NCC5CCOCC5)c(C(F)(F)F)c4)c(Oc4cnc5[nH]ccc5c4)c3)CC2)CO1 [Example 42, 4-(4-{[4-(4-chlorophenyl)-6,6-dimethyl-5,6-dihydro-2H-pyran-3-yl]methyl}piperazin-1-yl)-2-(1H-pyrrolo[2,3-b]pyridin-5-yloxy)-N-{[4-[(tetrahydro-2H-pyran-4-ylmethyl)amino]-3-(trifluoromethyl)phenyl]sulfonyl}benzamide] | 0.439
CC1(C)CC(c2ccc(Cl)cc2)=C(CN2CCN(c3ccc(C(=O)NS(=O)(=O)c4ccc(NCC5CCOCC5)c(S(=O)(=O)C(F)(F)F)c4)c(Oc4cnc5[nH]ccc5c4)c3)CC2)CO1 [Example 43, 4-(4-{[4-(4-chlorophenyl)-6,6-dimethyl-5,6-dihydro-2H-pyran-3-yl]methyl}piperazin-1-yl)-2-(1H-pyrrolo[2,3-b]pyridin-5-yloxy)-N-({4-[(tetrahydro-2H-pyran-4-ylmethyl)amino]-3-[(trifluoromethyl)sulfonyl]phenyl}sulfonyl)benzamide] | 0.012
CC1(C)CC(c2ccc(Cl)cc2)=C(CN2CCN(c3ccc(C(=O)NS(=O)(=O)c4ccc(N[C@H]5CC[C@H](N6CCOCC6)CC5)c(S(=O)(=O)C(F)(F)F)c4)c(Oc4cnc5[nH]ccc5c4)c3)CC2)CO1 [Example 44, Trans-4-(4-{[4-(4-chlorophenyl)-6,6-dimethyl-5,6-dihydro-2H-pyran-3-yl]methyl}piperazin-1-yl)-N-({4-[(4-morpholin-4-ylcyclohexyl)amino]-3-[(trifluoromethyl)sulfonyl]phenyl}sulfonyl)-2-(1H-pyrrolo[2,3-b]pyridin-5-yloxy)benzamide] | < 0.01
CN1CCC(Nc2ccc(S(=O)(=O)NC(=O)c3ccc(N4CCN(CC5=C(c6ccc(Cl)cc6)CC(C)(C)OC5)CC4)cc3Oc3cnc4[nH]ccc4c3)cc2S(=O)(=O)C(F)(F)F)CC1 [Example 45, 4-(4-{[4-(4-chlorophenyl)-6,6-dimethyl-5,6-dihydro-2H-pyran-3-yl]methyl}piperazin-1-yl)-N-({4-[(1-methylpiperidin-4-yl)amino]-3-[(trifluoromethyl)sulfonyl]phenyl}sulfonyl)-2-(1H-pyrrolo[2,3-b]pyridin-5-yloxy)benzamide] | < 0.01
CC1(C)CCC(CN2CCN(c3ccc(C(=O)NS(=O)(=O)c4cnc(OCC5CCOCC5)c(C(N)=O)c4)c(Oc4cnc5[nH]ccc5c4)c3)CC2)=C(c2ccc(Cl)cc2)C1 [Example 46, 5-({[4-(4-{[2-(4-chlorophenyl)-4,4-dimethylcyclohex-1-en-1-yl]methyl}piperazin-1-yl)-2-(1H-pyrrolo[2,3-b]pyridin-5-yloxy)benzoyl]amino}sulfonyl)-2-(tetrahydro-2H-pyran-4-ylmethoxy)nicotinamide] | 0.935
